One assay has as its target T1, Human immunodeficiency virus type 1 protease (Human immunodeficiency virus 1, UniProt Q72874). As to the kind of experiment: compound was evaluated for the inhibition of HIV-1 protease.
In turn, `OC[C@]12C3N(Cc4ccccc4)C4[C@](CO)(C5N(Cc6ccccc6)C1[C@]3(CO)[C@H](c1ccccc1)[C@@]45CO)[C@H]2c1ccccc1` came in with an IC50 of 16.1 µM.
Still for that read-out and setting: the same measure for `COc1ccc([C@H]2[C@@]3(CO)C4N(Cc5ccccc5)C5[C@]2(CO)C2N(Cc6ccccc6)C3[C@]4(CO)[C@H](c3ccc(OC)cc3)[C@@]52CO)cc1`: 33 µM; for `OC[C@]12C3NC4[C@](CO)(C5NC1[C@]3(CO)[C@H](c1ccccc1)[C@@]45CO)[C@H]2c1ccccc1`: 227 µM; for `COc1ccc([C@H]2[C@]3(CO)C4NC5[C@@]2(CO)C2NC3[C@@]4(CO)[C@H](c3ccc(OC)cc3)[C@]52CO)cc1`: 209 µM.
Same read-out and setting: under `CN1C2[C@]3(CO)C4N(C)C5[C@@](CO)(C1[C@@]5(CO)[C@@H](c1ccccc1)[C@]24CO)[C@H]3c1ccccc1` stands 262 µM; under `COc1ccc([C@H]2[C@]3(CO)C4N(C)C5[C@]2(CO)C2N(C)C3[C@]4(CO)[C@H](c3ccc(OC)cc3)[C@]52CO)cc1`, 195 µM.

The next assay deals with T1, Human immunodeficiency virus type 1 protease. Briefly: Compound was evaluated for its binding affinity against HIV-1 protease.
Consider `OC[C@]12C3N(Cc4ccccc4)C4[C@](CO)(C5N(Cc6ccccc6)C1[C@]3(CO)[C@H](c1ccccc1)[C@@]45CO)[C@H]2c1ccccc1`, for which the Ki amounted to 7.8 µM.

A word on the IC50: it is the concentration needed to halve the response being measured. Usually Ki stands for a measure of affinity in units of concentration, obtained from inhibition or displacement. High values mean lower affinity, low ones higher affinity.
